Measured values taken from patent US9777020B2, “Furo-3-carboxamide derivatives and methods of use” (AbbVie Inc., priority 2014, dated 2017).

Molecular target: TrkA (Homo sapiens (Human), UniProt P04629)
Experiment: TrkA kinase HTRF enzyme inhibition assay
Type: biochemical
Details: TrkA pre-incubated with 200 μM ATP
Method in brief: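 HTRF ratio read-out of biotin-peptide (125 nM) phosphorylation, 1 h reaction after TrkA (2-10 nM) auto-activation with ATP (200 μM) for 20 min and 10 min compound pre-incubation in 50 mM HEPES pH 7.4 with MgCl2/MnCl2. Percent inhibition from initial rates in duplicate, fitted to single-site equation for IC50.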

Chain of TrkA (P04629 33-796): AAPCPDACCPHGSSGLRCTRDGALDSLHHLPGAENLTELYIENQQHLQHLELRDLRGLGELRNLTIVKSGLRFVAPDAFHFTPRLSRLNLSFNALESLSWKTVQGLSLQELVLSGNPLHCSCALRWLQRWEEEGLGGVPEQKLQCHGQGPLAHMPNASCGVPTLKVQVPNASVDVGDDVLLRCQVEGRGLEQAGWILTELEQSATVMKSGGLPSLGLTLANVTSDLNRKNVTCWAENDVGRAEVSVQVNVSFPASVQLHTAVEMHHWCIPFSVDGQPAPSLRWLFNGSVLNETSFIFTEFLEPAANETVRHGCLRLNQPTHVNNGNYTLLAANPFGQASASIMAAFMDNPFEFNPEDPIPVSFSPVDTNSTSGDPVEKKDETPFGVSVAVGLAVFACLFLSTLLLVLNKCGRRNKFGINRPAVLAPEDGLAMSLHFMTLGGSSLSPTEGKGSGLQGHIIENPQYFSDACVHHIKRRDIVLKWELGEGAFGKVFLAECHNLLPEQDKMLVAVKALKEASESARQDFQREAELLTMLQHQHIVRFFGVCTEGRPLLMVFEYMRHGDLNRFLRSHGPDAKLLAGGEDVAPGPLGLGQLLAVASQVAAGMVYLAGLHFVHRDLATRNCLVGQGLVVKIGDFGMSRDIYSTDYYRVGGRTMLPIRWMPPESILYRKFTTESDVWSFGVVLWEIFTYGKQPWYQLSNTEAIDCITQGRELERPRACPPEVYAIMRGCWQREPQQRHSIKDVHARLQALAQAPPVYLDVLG

SMILES	IC50 [nM]
CC(C)(O)COc1nc(N2CCOCC2)ccc1NC(=O)c1coc2c1C(=O)NCC2 [Example 107, N-[2-(2-hydroxy-2-methylpropoxy)-6-(morpholin-4-yl)pyridin-3-yl]-4-oxo-4,5,6,7-tetrahydrofuro[3,2-c]pyridine-3-carboxamide]	6.9
CCOc1nc(CC(=O)OC)ccc1NC(=O)c1coc2c1C(=O)NCC2 [Example 108, methyl(6-ethoxy-5-{[(4-oxo-4,5,6,7-tetrahydrofuro[3,2-c]pyridin-3-yl)carbonyl]amino}pyridin-2-yl)acetate]	226
CCOc1nc(CCO)ccc1NC(=O)c1coc2c1C(=O)NCC2 [Example 109, N-[2-ethoxy-6-(2-hydroxyethyl)pyridin-3-yl]-4-oxo-4,5,6,7-tetrahydrofuro[3,2-c]pyridine-3-carboxamide]	225
COc1nc(N2CCN(C(C)=O)CC2)ccc1NC(=O)c1coc2c1C(=O)CC1(CCOCC1)C2 [Example 110, N-[6-(4-acetylpiperazin-1-yl)-2-methoxypyridin-3-yl]-4-oxo-2′,3′,4,5′,6′,7-hexahydro-5H-spiro[1-benzofuran-6,4′-pyran]-3-carboxamide]	39.2
CCOc1nc(N2CCN(C(=NC#N)NC)CC2)ccc1NC(=O)c1coc2c1C(=O)NC1(CCC1)C2 [Example 118, N-{6-[4-(N′-cyano-N-methylcarbamimidoyl)piperazin-1-yl]-2-ethoxypyridin-3-yl}-4′-oxo-4′,7′-dihydro-5′H-spiro[cyclobutane-1,6′-furo[3,2-c]pyridine]-3′-carboxamide]	3
COc1cc(N2CCNCC2)ccc1NC(=O)c1coc2c1C(=O)NC(C)(C)C2 [Example 120, N-[2-methoxy-4-(piperazin-1-yl)phenyl]-6,6-dimethyl-4-oxo-4,5,6,7-tetrahydrofuro[3,2-c]pyridine-3-carboxamide]	28
COc1cc(N2CCNCC2)ccc1NC(=O)c1coc2c1C(=O)NC(C)C2 (centres unmarked) [Example 124, N-[2-methoxy-4-(piperazin-1-yl)phenyl]-6-methyl-4-oxo-4,5,6,7-tetrahydrofuro[3,2-c]pyridine-3-carboxamide]	73.7
COc1cc(N2CCN(S(C)(=O)=O)CC2)ccc1NC(=O)c1coc2c1C(=O)NC(C)(C)C2 [Example 125, N-{2-methoxy-4-[4-(methylsulfonyl)piperazin-1-yl]phenyl}-6,6-dimethyl-4-oxo-4,5,6,7-tetrahydrofuro[3,2-c]pyridine-3-carboxamide]	35.9
CCOc1nc(N2CCNCC2)ccc1NC(=O)c1coc2c1C(=O)NC(C)(C)C2 [Example 127, N-[2-ethoxy-6-(piperazin-1-yl)pyridin-3-yl]-6,6-dimethyl-4-oxo-4,5,6,7-tetrahydrofuro[3,2-c]pyridine-3-carboxamide]	13.2
CC(C)Oc1nc(N2C[C@H]3CCN[C@H]3C2)ccc1NC(=O)c1coc2c1C(=O)NC(C)(C)C2 [Example 129, N-{6-[(3 aR,6aR)-hexahydropyrrolo[3,4-b]pyrrol-5(1H)-yl]-2-isopropoxypyridin-3-yl}-6,6-dimethyl-4-oxo-4,5,6,7-tetrahydrofuro[3,2-c]pyridine-3-carboxamide]	10.8
COc1nc(N2CC[C@@H]3CN(C)C[C@@H]32)ccc1NC(=O)c1coc2c1C(=O)NC(C)(C)C2 [Example 130, N-{2-methoxy-6-[(3aR,6aR)-5-methylhexahydropyrrolo[3,4-b]pyrrol-1 (2H)-yl]pyridin-3-yl}-6,6-dimethyl-4-oxo-4,5,6,7-tetrahydrofuro[3,2-c]pyridine-3-carboxamide]	38.3
CC(C)Oc1nc(N2C[C@@H]3CCN(CCO)[C@@H]3C2)ccc1NC(=O)c1coc2c1C(=O)NC(C)(C)C2 [Example 131, N-{6-[(3aS,6aS)-1-(2-hydroxyethyl)hexahydropyrrolo[3,4-b]pyrrol-5(1H)-yl]-2-isopropoxypyridin-3-yl}-6,6-dimethyl-4-oxo-4,5,6,7-tetrahydrofuro[3,2-c]pyridine-3-carboxamide]	98.1

Results, then the compound that gave them:

IC50 [nM]	SMILES
3.3	CCOc1nc(N2CCN(C(C)=O)CC2)ccc1NC(=O)c1coc2c1C(=O)N([C@H](C)CO)CC2 [Example 99, N-[6-(4-acetylpiperazin-1-yl)-2-ethoxypyridin-3-yl]-5-[(2R)-1-hydroxypropan-2-yl]-4-oxo-4,5,6,7-tetrahydrofuro[3,2-c]pyridine-3-carboxamide]
23.5	CCOc1nc(N2CCN(C(C)=O)CC2)ccc1NC(=O)c1coc2c1C(=O)N([C@@H](C)COC(C)=O)CC2 [Example 100, (2S)-2-[3-{[6-(4-acetylpiperazin-1-yl)-2-ethoxypyridin-3-yl]carbamoyl}-4-oxo-6,7-dihydrofuro[3,2-c]pyridin-5(4H)-yl]propyl acetate]
19.5	CCOc1nc(N2CCN(C(C)=O)CC2)ccc1NC(=O)c1coc2c1C(=O)N([C@@H](C)CO)CC2 [Example 101, N-[6-(4-acetylpiperazin-1-yl)-2-ethoxypyridin-3-yl]-5-[(2S)-1-hydroxypropan-2-yl]-4-oxo-4,5,6,7-tetrahydrofuro[3,2-c]pyridine-3-carboxamide]
12.7	CCOc1nc(N2CCN(C(C)=O)CC2)ccc1NC(=O)c1coc2c1C(=O)N(C(C)(C)CO)CC2 [Example 102, N-[6-(4-acetylpiperazin-1-yl)-2-ethoxypyridin-3-yl]-5-(1-hydroxy-2-methylpropan-2-yl)-4-oxo-4,5,6,7-tetrahydrofuro[3,2-c]pyridine-3-carboxamide]
16.9	CCOc1nc(N2CCN(C(C)=O)CC2)ccc1NC(=O)c1coc2c1C(=O)N(CC(C)(C)OC(C)=O)CC2 [Example 103, 1-[3-{[6-(4-acetylpiperazin-1-yl)-2-ethoxypyridin-3-yl]carbamoyl}-4-oxo-6,7-dihydrofuro[3,2-c]pyridin-5(4H)-yl]-2-methylpropan-2-yl acetate]
6	CCOc1nc(N2CCN(C(C)=O)CC2)ccc1NC(=O)c1coc2c1C(=O)N(CC(C)(C)O)CC2 [Example 104, N-[6-(4-acetylpiperazin-1-yl)-2-ethoxypyridin-3-yl]-5-(2-hydroxy-2-methylpropyl)-4-oxo-4,5,6,7-tetrahydrofuro[3,2-c]pyridine-3-carboxamide]
23.5	CC(=O)N1CCN(c2ccc(NC(=O)c3coc4c3C(=O)NCC4)c(O[C@H]3CCOC3)n2)CC1 [Example 105, N-{6-(4-acetylpiperazin-1-yl)-2-[(3S)-tetrahydrofuran-3-yloxy]pyridin-3-yl}-4-oxo-4,5,6,7-tetrahydrofuro[3,2-c]pyridine-3-carboxamide]
3.9	CCOc1nc(N2CCN(C(C)=O)CC2)ccc1NC(=O)c1coc2c1C(=O)NC1(CCC1)C2 [Example 111, N-[6-(4-acetylpiperazin-1-yl)-2-ethoxypyridin-3-yl]-4′-oxo-4′,7′-dihydro-5′H-spiro[cyclobutane-1,6′-furo[3,2-c]pyridine]-3′-carboxamide]
27.3	CCOc1nc(N2CCN(C(C)=O)CC2)ccc1NC(=O)c1coc2c1C(=O)NC1(CCCCC1)C2 [Example 112, N-[6-(4-acetylpiperazin-1-yl)-2-ethoxypyridin-3-yl]-4′-oxo-4′,7′-dihydro-5′H-spiro[cyclohexane-1,6′-furo[3,2-c]pyridine]-3′-carboxamide]
65.4	CCOc1nc(N2CCN(C(C)=O)CC2)ccc1NC(=O)c1coc2c1C(=O)NC1(C2)CN(C(C)=O)C1 [Example 113, 1-acetyl-N-[6-(4-acetylpiperazin-1-yl)-2-ethoxypyridin-3-yl]-4′-oxo-4′,7′-dihydro-5′H-spiro[azetidine-3,6′-furo[3,2-c]pyridine]-3′-carboxamide]
7.2	CCOc1nc(N2CCN(C(C)=O)CC2)ccc1NC(=O)c1coc2c1C(=O)NC1(COC1)C2 [Example 114, N-[6-(4-acetylpiperazin-1-yl)-2-ethoxypyridin-3-yl]-4-oxo-4,7-dihydro-5H-spiro[furo[3,2-c]pyridine-6,3′-oxetane]-3-carboxamide]
8.5	CCOc1nc(N2CCN(C(C)=O)CC2)ccc1NC(=O)c1coc2c1C(=O)N[C@@H]([C@@H](C)O)C2 [Example 115, (6R)—N-[6-(4-acetylpiperazin-1-yl)-2-ethoxypyridin-3-yl]-6-[(1R)-1-hydroxyethyl]-4-oxo-4,5,6,7-tetrahydrofuro[3,2-c]pyridine-3-carboxamide]
3.1	CCOc1nc(N2CCN(C(C)=O)CC2)ccc1NC(=O)c1coc2c1C(=O)N(CCO)C1(CCC1)C2 [Example 116, N-[6-(4-acetylpiperazin-1-yl)-2-ethoxypyridin-3-yl]-5′-(2-hydroxyethyl)-4′-oxo-4′,7′-dihydro-5′H-spiro[cyclobutane-1,6′-furo[3,2-c]pyridine]-3′-carboxamide]
5.3	CCOc1nc(N2CCN(C(C)=O)CC2)ccc1NC(=O)c1coc2c1C(=O)NC1(CC1)C2 [Example 117, N-[6-(4-acetylpiperazin-1-yl)-2-ethoxypyridin-3-yl]-4′-oxo-4′,7′-dihydro-5′H-spiro[cyclopropane-1,6′-furo[3,2-c]pyridine]-3′-carboxamide]
6.8	CCOc1nc(N2CCN(C(C)=O)CC2)ccc1NC(=O)c1coc2c1C(=O)N(CC(O)CO)C(C)(C)C2 (centres unmarked) [Example 119, N-[6-(4-acetylpiperazin-1-yl)-2-ethoxypyridin-3-yl]-5-(2,3-dihydroxypropyl)-6,6-dimethyl-4-oxo-4,5,6,7-tetrahydrofuro[3,2-c]pyridine-3-carboxamide]
14.1	COc1nc(N2CCN(C(C)=O)CC2)ccc1NC(=O)c1coc2c1C(=O)NC(C)(C)C2 [Example 122, N-[6-(4-acetylpiperazin-1-yl)-2-methoxypyridin-3-yl]-6,6-dimethyl-4-oxo-4,5,6,7-tetrahydrofuro[3,2-c]pyridine-3-carboxamide]
11.9	COc1nc(N2CCN(C(=O)N3CCCC3)CC2)ccc1NC(=O)c1coc2c1C(=O)NC(C)(C)C2 [Example 123, N-{2-methoxy-6-[4-(pyrrolidin-1-ylcarbonyl)piperazin-1-yl]pyridin-3-yl}-6,6-dimethyl-4-oxo-4,5,6,7-tetrahydrofuro[3,2-c]pyridine-3-carboxamide]
